{
  "source": "patent US20080193576A1",
  "about": "“Antiphlogistic and analgesic composition for topical use in a region of an animal locomotive system” (priority 2007, published 2008)",
  "assay": "tests of the topical composition carried out on persons",
  "type": "in vivo",
  "conditions": "compared as hydrogel-soluble NSAID component at about 2-10% of the composition",
  "data": [
    {"smiles": "COC(=O)c1ccccc1O", "note": "[methyl salicylate]", "values": [
      {"measurement": "efficacy of the non-steroidal anti-inflammatory agent within the inventive composition", "result": "most efficacious"}
    ]}
  ]
}
